“Also recorded” adds a separate entry of the source.
Experiments:
[1] = system: PTIL194 and PTIL237; assay: Reversal of suppressive function of PTIL194 and PTIL237 by TLR ligands (naïve CD4+ T cell proliferation); format: cell-based, human; conditions: naïve CD4+ T cells:Treg 10:1, OKT3-coated plates, FIG. 5A
Experimental: (§1) (C) Expression of TLR8 mRNA in CD4^+ Treg and CD8^+ Treg cell clones generated from PTIL194 by RT-PCR.
(§2) Naïve CD4^+ T cells were purified from PBMCs by using microbeads (Miltenyi Biotec). Naïve CD4^+ T cells (10^5/well) were cultured with regulatory T cells at a ratio of 10:1 in OKT3 (2 μg/ml)-coated, U bottomed 96-well plates containing the following TLR ligands. […] CpG-A (3 μg/ml), CpG-B (3 μg/ml) and poly-G3 oligonucleotides (3 μg/ml) were synthesized by Integrated DNA Technologies (Coralville, Iowa). All experiments were performed at least more than once.
CD4^+ CD25-T cells (2×10^5) purified from human PBMCs by antibody-coated beads (Dynal, Inc.) were cultured for 60 hours in U-bottomed 96-well plates containing 5×104 CD3-depleted APCs, 0.1 μg/ml anti-CD3 mAb, and different numbers of CD4^+ regulatory or effector T cells. The proliferation of responder T cells was determined by the incorporation of [H^3]thymidine for the last 16 hours of culture, as previously described (Wang et al., 2004; Wang et al., 2005). Cells were harvested and the radioactivity counted in a scintillation counter. All experiments were performed in triplicate. Transwell experiments were performed in 24-well plates with a pore size of 0.4 μm (Coming Costar, Cambridge, Mass.). 2×10^5 the freshly purified naïve CD4^+ T cells were cultured in the outer wells of 24-well plate in medium containing 0.1 μg/ml anti-CD3 antibody and 2×10^5 APCs. Equal numbers of regulatory T cells or nonregulatory T cells were added into the inner wells in the same medium containing 0.5 μg/ml anti-CD3 antibody and 2×10^5 APCs. After 56 hours of culture, the cells in the outer and inner wells were harvested separately and transferred to 96-well plates. [H^3]thymidine was added, and the cells were cultured for an additional 16 hours before harvest for the radioactivity counting with a liquid scintillation counter.
as §2, with “use of” for “using”, “following” for “following TLR”, “poly-G” for “poly-G3”, “Iowa).” for “Iowa). All experiments were performed at least more than once.”

[2] = system: naturally occurring CD4+ CD25+ Treg cells; assay: Reversal of suppressive function of naturally occurring CD4+ CD25+ Treg cells; format: cell-based
[3] = system: CD4+ Treg cells; assay: Naïve T cell proliferation assay with CD4+ Treg cell populations/clones with or without TLR ligands; format: cell-based, human; conditions: prostate tumor-derived (PTIL194); FIGS. 5A, 5B
Experimental: as §1
(§3) To test this possibility, the suppressive effects of CD4^+ and CD8^+ Treg cells were examined on naïve T cell proliferation in a functional assay, with or without TLR8 ligands (Poly-G2 and ssRNA40) or ligands for other TLRs.
(§4) CD4^+ CD25-T cells (2×10^5) purified from human PBMCs by antibody-coated beads (Dynal, Inc.) were cultured for 60 hours in U-bottomed 96-well plates containing 5×104 CD3-depleted APCs, 0.1 μg/ml anti-CD3 mAb, and different numbers of CD4^+ regulatory or effector T cells. The proliferation of responder T cells was determined by the incorporation of [H^3]thymidine for the last 16 hours of culture, as previously described (Wang et al., 2004; Wang et al., 2005). Cells were harvested and the radioactivity counted in a scintillation counter. All experiments were performed in triplicate. Transwell experiments were performed in 24-well plates with a pore size of 0.4 μm (Coming Costar, Cambridge, Mass.). 2×10^5 the freshly purified naïve CD4^+ T cells were cultured in the outer wells of 24-well plate in medium containing 0.1 μg/ml anti-CD3 antibody and 2×10^5 APCs. […] [H^3]thymidine was added, and the cells were cultured for an additional 16 hours before harvest for the radioactivity counting with a liquid scintillation counter. […]

[4] = system: CD8+ Treg cells; assay: Naïve T cell proliferation assay with CD8+ Treg cell populations/clones with or without TLR ligands; format: cell-based, human; conditions: prostate tumor-derived (PTIL194); FIGS. 5A, 5B
Experimental: as §1, §3, §4

[5] = system: BTIL31 γδ1 Treg cells; assay: Naïve CD4+ T cell proliferation ([3H]-thymidine) in coculture with BTIL31 cells plus TLR ligands; format: cell-based, human; conditions: naïve CD4+ T cells:BTIL31 10:1, OKT3-coated plates; FIG. 13A
Experimental: (§5) In addition, naïve CD4^+ T cells were cultured in the presence of supernatants derived from BTIL31 cells pre-treated with or without the indicated TLR ligands. The proliferation of naïve CD4^+ T cells was determined by [^3H]-thymidine incorporation assay described herein. […] CFSE-labeled Naïve CD4^+ T cells cocultured with BTIL31 cells or its clones in the presence or absence of Poly-G3 in OKT3-coated 24-well plates. After 3 days of culture, cells were harvested and analyzed for divisions by FACS gated on the CFSE-labeled cells. CFSE-labeled Naïve CD4^+ T cells alone served as a control. […] BTIL31 cells were cultured in the presence or absence of Poly-G3 for 2 days, and then tested the ability of Poly-G3-treated and untreated BTIL31 cells to kill BC31 autologous tumor cells.
as §2, with “once. […]” for “once.”

[6] = system: BTIL31 γδ1 Treg cells; assay: Naïve CD4+ T cell proliferation with supernatants from TLR ligand-treated BTIL31 cells; format: cell-based, human; conditions: FIG. 13A
Experimental: as §5
(§6) To test whether the suppressive function of BTIL31 γδ1 Treg cells could be reversed by TLR-8 ligands, cells were treated with a panel of TLR ligands and then test their ability to suppress naïve T cell proliferation. […] After 48 h, CFSE-labeled cells were gated for FACS analysis.

[7] = system: BTIL31 γδ1 Treg cells; assay: CFSE-labeled naïve CD4+ T cell division in coculture with BTIL31 cells or clones; format: cell-based, human; conditions: coculture with BTIL31 bulk cells or clones, FACS, FIG. 13B
Experimental: as §5, §6

[8] = system: BTIL31 γδ1 Treg cells; assay: Killing of BC31 autologous tumor cells by Poly-G3-treated BTIL31 cells; format: cell-based, human; conditions: BTIL31 cultured with Poly-G3 for 2 days; FIG. 13C
Experimental: (A). Reversal of the suppressive function of γδ 1 T cells by TLR8 ligands, but not by ligands for other TLRs. naïve CD4^+ T cells were cultured with BTIL31 cells at the ratio of 10:1 in the U bottom 96-well plates pre-coated with OKT3 in the presence of different TLR ligands: LPS, CpG-A, CpG-B, Imiquimod-R837, loxoribine, poly (I: C), ssRNA40/LyoVec, RNA33/LyoVec, pam3CSK4, flagellin and Poly-G3. In addition, naïve CD4^+ T cells were cultured in the presence of supernatants derived from BTIL31 cells pre-treated with or without the indicated TLR ligands. The proliferation of naïve CD4^+ T cells was determined by [^3H]-thymidine incorporation assay described herein. Results are one representative data of three independent experiments. (B) Restoration of CFSE-naïve CD4^+ T cell division by Poly-G3 oligonucleotides. CFSE-labeled Naïve CD4^+ T cells cocultured with BTIL31 cells or its clones in the presence or absence of Poly-G3 in OKT3-coated 24-well plates. After 3 days of culture, cells were harvested and analyzed for divisions by FACS gated on the CFSE-labeled cells. CFSE-labeled Naïve CD4^+ T cells alone served as a control. (C) Poly-G treatment had no effect on TRAIL-mediated killing activity. BTIL31 cells were cultured in the presence or absence of Poly-G3 for 2 days, and then tested the ability of Poly-G3-treated and untreated BTIL31 cells to kill BC31 autologous tumor cells. […]

## CC(C)Cn1cnc2c(N)nc3ccccc3c21 [imiquimod, Imiquimod]
[1]
  Restoration of Treg cell suppressed proliferation of naïve CD4+ T cells: no effect
[2]
  Effect on naturally occurring CD4+ CD25+ Treg cells: little or no effect

## C=CCn1c(=O)n([C@@H]2O[C@H](CO)[C@@H](O)[C@H]2O)c2nc(N)[nH]c(=O)c21 [loxoribine]
[1]
  Restoration of Treg cell suppressed proliferation of naïve CD4+ T cells: no effect

## AAG*GA [Poly-G2]
[1]
  Restoration of Treg cell suppressed proliferation of naïve CD4+ T cells: Restoration
[3]
  Reversal of suppressive function of CD4+ Treg-containing cell populations and Treg cell clones: abolished; also recorded: Reversal of suppressive function
[4]
  Reversal of suppressive function of CD8+ Treg-containing cell populations and clones: Reversal of suppressive function

## AG*G*GA [Poly-G3]
[5]
  Reversal of the suppressive function of BTIL31 γδ1 Treg cells (proliferation of naïve CD4+ T cells): reverse the suppressive function
[6]
  Effect of supernatants from ligand-treated γδ1 Treg cells on proliferation of naïve CD4+ T cells: enhanced rather than inhibited
[7]
  Restoration of proliferation or division of CFSE-labeled naïve CD4+ T cells: Restoration
[7]; listed as poly-G3
  Restoration of proliferation or division of CFSE-labeled naïve CD4+ T cells: completely restored
[8]
  Effect on TRAIL-mediated killing of BC31 tumor cells by BTIL31 cells: no effect

## pam3CSK4
[1]
  Restoration of Treg cell suppressed proliferation of naïve CD4+ T cells: no effect

## poly(I:C)
[1]
  Restoration of Treg cell suppressed proliferation of naïve CD4+ T cells: no effect

From US20080026986A1, “REVERSAL OF THE SUPPRESSIVE FUNCTION OF SPECIFIC T CELLS VIA TOLL-LIKE RECEPTOR 8 SIGNALING” (priority 2006, published 2008)
